The record followed here is patent publication US20250032451A1, “MICROSPHERE FORMULATIONS COMPRISING ASENAPINE AND METHODS FOR MAKING AND USING THE SAME” (Oakwood Laboratories, LLC, priority 2021, published 2025).

Each structure is given as a SMILES string. Counter-ions that a name gives are not always drawn. Like-named read-outs stand apart in the source and are kept apart here.

The nature of series [1]: Solubility of asenapine maleate in water and solvents. The format is physicochemical.
The next series is described as follows: pKa of asenapine maleate. The format is physicochemical.

By solubility is commonly meant how much of the substance goes into solution per volume. What is called pKa is the pH at which an ionisable group is half protonated. A higher pKa goes with a weaker acid or stronger base. Consider `CN1C[C@@H]2c3ccccc3Oc3ccc(Cl)cc3[C@H]2C1` (racemic) [asenapine maleate], for which the solubility in series [1] (N-methylpyrrolidone, organic solvent or mixture, NMP, read-out: N-methylpyrrolidone (NMP) solubility) was 700 mg/mL; in series [1] (benzyl alcohol, organic solvent or mixture, BA, read-out: benzyl alcohol (BA) solubility) it was 500 mg/mL; in series [1] (dichloromethane, organic solvent or mixture, DCM, read-out: dichloromethane (DCM) solubility) it was 324 mg/mL; in series [1] (dimethyl sulfoxide, organic solvent or mixture, DMSO, read-out: dimethyl sulfoxide (DMSO) solubility) it was 700 mg/mL; in series [1] (ethanol, organic solvent or mixture, EtOH, read-out: ethanol (EtOH) solubility), 100 mg/mL; in series [1] (ethyl acetate, organic solvent or mixture, EA, read-out: ethyl acetate (EA) solubility), 10 mg/mL. In series [1] (water, read-out: water solubility), the solubility worked out at 3 mg/mL. This compound also returned a pKa in “pKa of asenapine maleate” of 8.64.
